Target: Tyrosine-protein kinase JAK3 (Homo sapiens) (UniProt P52333)
Test: JAK3 kinase inhibitors, dose response, biochemical, purified enzyme (AID 1224891)
Conditions: recombinant JAK3 kinase domain, 32P-ATP radiometric

Tyrosine-protein kinase JAK3 (Homo sapiens), sequence (P52333 whole entry, looked up): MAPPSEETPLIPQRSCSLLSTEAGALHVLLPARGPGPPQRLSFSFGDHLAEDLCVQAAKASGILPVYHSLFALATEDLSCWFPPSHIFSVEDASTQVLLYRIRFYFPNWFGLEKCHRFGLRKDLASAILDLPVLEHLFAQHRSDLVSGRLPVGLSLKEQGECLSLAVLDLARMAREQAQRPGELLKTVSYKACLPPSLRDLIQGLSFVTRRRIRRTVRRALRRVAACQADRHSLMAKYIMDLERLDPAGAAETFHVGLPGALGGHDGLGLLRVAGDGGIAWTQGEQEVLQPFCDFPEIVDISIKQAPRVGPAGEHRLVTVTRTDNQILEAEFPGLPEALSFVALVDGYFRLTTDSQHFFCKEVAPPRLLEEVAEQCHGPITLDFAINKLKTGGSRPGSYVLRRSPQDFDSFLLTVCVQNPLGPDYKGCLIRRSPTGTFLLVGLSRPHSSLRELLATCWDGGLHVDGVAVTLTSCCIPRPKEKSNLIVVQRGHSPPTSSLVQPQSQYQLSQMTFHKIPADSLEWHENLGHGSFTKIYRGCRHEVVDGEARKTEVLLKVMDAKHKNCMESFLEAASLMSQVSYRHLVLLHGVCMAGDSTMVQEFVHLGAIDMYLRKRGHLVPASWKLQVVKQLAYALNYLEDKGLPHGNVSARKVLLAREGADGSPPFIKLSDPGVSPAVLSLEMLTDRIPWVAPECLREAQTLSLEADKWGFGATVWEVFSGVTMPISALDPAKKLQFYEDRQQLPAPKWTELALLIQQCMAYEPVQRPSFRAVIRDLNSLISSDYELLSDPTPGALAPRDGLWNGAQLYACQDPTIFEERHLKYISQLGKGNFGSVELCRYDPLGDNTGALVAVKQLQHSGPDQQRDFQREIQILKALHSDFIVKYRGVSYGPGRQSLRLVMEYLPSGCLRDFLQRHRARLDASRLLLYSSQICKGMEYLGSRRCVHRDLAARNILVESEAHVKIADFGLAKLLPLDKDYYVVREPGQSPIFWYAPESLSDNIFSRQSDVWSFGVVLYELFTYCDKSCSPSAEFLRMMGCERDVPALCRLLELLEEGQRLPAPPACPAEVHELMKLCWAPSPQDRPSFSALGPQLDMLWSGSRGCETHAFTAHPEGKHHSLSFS

IC50: 1920 nM
Compound: CCOC(=O)c1c[nH]c2ncnc(-c3cc(NC(=O)CC)ccc3F)c12

— PubChem BioAssay AID1224891
